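In this assay, cells in 96-well plates receive the compound at five concentrations for 48 hours. Endpoints are linearly interpolated between the surrounding concentrations. GI50 = concentration required for 50% inhibition of growth. Definition used: TGI = concentration required for complete inhibition of growth.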
Experiments:
Test in all cases: NCI anticancer screen, dose series, 48 h
PC-3 prostate = tested on: PC-3 prostate
HL-60(TB) leukemia = tested on: HL-60(TB) leukemia
NCI-H522 lung = tested on: NCI-H522 lung
UACC-62 melanoma = tested on: UACC-62 melanoma
ACHN renal = tested on: ACHN renal
OVCAR-8 ovarian = tested on: OVCAR-8 ovarian
HCT-15 colon = tested on: HCT-15 colon
MDA-MB-435 = tested on: MDA-MB-435
SK-MEL-2 melanoma = tested on: SK-MEL-2 melanoma
M14 melanoma = tested on: M14 melanoma

Compound | GI50 (PC-3 prostate) | TGI (PC-3 prostate) | GI50 (HL-60(TB) leukemia) | TGI (HL-60(TB) leukemia) | GI50 (NCI-H522 lung) | TGI (NCI-H522 lung) | GI50 (UACC-62 melanoma) | TGI (UACC-62 melanoma) | GI50 (ACHN renal) | TGI (ACHN renal) | GI50 (OVCAR-8 ovarian) | TGI (OVCAR-8 ovarian) | GI50 (HCT-15 colon) | TGI (HCT-15 colon) | GI50 (MDA-MB-435) | TGI (MDA-MB-435) | GI50 (SK-MEL-2 melanoma) | TGI (SK-MEL-2 melanoma) | GI50 (M14 melanoma) | TGI (M14 melanoma)
COc1cc(Nc2c(C#N)cnc3cc(OCCCN4CCN(C)CC4)c(OC)cc23)c(Cl)cc1Cl | 5.02 µM | 16.7 µM | 1.59 µM | 3.63 µM | 0.393 µM | 6.36 µM | 2.48 µM | 7.01 µM | 0.317 µM | 9.7 µM | 2.35 µM | 14.4 µM | 1.21 µM | 11.8 µM | 1.97 µM | 5.36 µM | 2.97 µM | 8.67 µM | 1.3 µM | 3.03 µM
CNC(=O)c1cccc2cc(Oc3ccnc4cc(OCC5(N)CC5)c(OC)cc34)ccc12 | 11 µM | 25.9 µM | 8.26 µM | 26.3 µM | 8.94 µM | 25.6 µM | 4.03 µM | 15.9 µM | 1.96 µM | 4.48 µM | 8.77 µM | 27.4 µM | 6.56 µM | 20.2 µM | 3.09 µM | 12 µM | 14.3 µM | 32 µM | 8.47 µM | 24.3 µM
COc1cc2oc3cc(=O)cc4oc(-c5ccccc5)cc(c2c2c1CCC(c1ccccc1)O2)c43 (stereo not given) |  | > 100 µM |  | 62.7 µM |  | > 100 µM |  | > 100 µM |  | 61.9 µM |  | > 100 µM |  | 91.9 µM |  | 56 µM |  | > 100 µM |  | 33.4 µM
c1csc(-c2cn3nc(-c4c[nH]c5ccccc45)sc3n2)c1 | 2.07 µM | > 100 µM | 0.76 µM | 20.9 µM | 0.754 µM | > 100 µM | 0.738 µM | 18.7 µM | 3.23 µM | 52.5 µM | 2.72 µM | > 100 µM | 0.488 µM | 15.6 µM | 0.225 µM | 0.685 µM | 1.08 µM | 23.8 µM | 0.75 µM | 15.8 µM
COC(=O)[C@@]12OC[C@]34[C@H]([C@@H](O)[C@@H]1O)[C@@]1(C)[C@H](O)C(=O)C=C(C)[C@@H]1C[C@H]3OC(=O)C(OC(C)=O)[C@@H]24 (stereo not given in full) | 0.0334 µM | 0.134 µM | 0.0119 µM | 0.0315 µM | < 0.0111 µM | 0.041 µM | 0.0245 µM | 0.142 µM | 0.0502 µM | 0.28 µM | 0.0371 µM | 0.266 µM | 0.101 µM | 0.458 µM | 0.0319 µM | 0.148 µM | 0.0574 µM | 0.319 µM | 0.0261 µM | 0.0785 µM
CC1OC(n2c3ccccc3c3c4c(c5c6ccccc6[nH]c5c32)C(=O)N(CCN[C@@H]2CCC[C@H]2N)C4=O)CC(O)C1O (stereo not given in full) | 1.55 µM | 6.13 µM | 1.26 µM | 8.23 µM | 0.962 µM | 5.26 µM | 0.872 µM | 2.8 µM | 2.97 µM | 10.5 µM | 1.93 µM | 9.11 µM | 5.88 µM | 12.6 µM | 1.44 µM | 6.46 µM | 3.68 µM | 11.8 µM | 1.63 µM | 7.14 µM
O=S(=O)(Nc1ccc(Br)c(Cl)c1)c1ccc(-c2cnc(C3CC3)o2)cc1 | 0.493 µM | 14.8 µM | 0.303 µM | 4.96 µM | 0.262 µM | 10.7 µM | 0.372 µM | 13.6 µM | 0.562 µM | 18.2 µM | 1.5 µM | 21.4 µM | 0.445 µM | 13.7 µM | 0.177 µM | 2.45 µM | 2.45 µM | 24 µM | 0.458 µM | 14.1 µM
COc1cccc(-n2nc(C)c3c(N/N=C(\C)c4ccncc4)ncnc32)c1 | > 25 µM | > 25 µM | > 25 µM | > 25 µM | > 25 µM | > 25 µM | > 25 µM | > 25 µM | > 25 µM | > 25 µM | > 25 µM | > 25 µM | > 25 µM | > 25 µM | > 25 µM | > 25 µM | > 25 µM | > 25 µM | > 25 µM | > 25 µM
O=C1c2cccc(NCCN=Cc3cc([N+](=O)[O-])ccc3O)c2C(=O)c2c(NCCN=Cc3cc([N+](=O)[O-])ccc3O)cccc21 | 3.25 µM | > 100 µM | 38.8 µM | > 100 µM | 4.07 µM | > 100 µM | 33 µM | > 100 µM | 5.61 µM | > 100 µM | 2.55 µM | > 100 µM | 30.3 µM | > 100 µM | 4.28 µM | > 100 µM | 20.5 µM | 96.4 µM | 26.8 µM | > 100 µM
Cc1ccc(C(CC(=O)c2ccccc2)C2C(=O)NC(=O)NC2=O)cc1 (stereo not given) | > 100 µM | > 100 µM | > 100 µM | > 100 µM | > 100 µM | > 100 µM | > 100 µM | > 100 µM | > 100 µM | > 100 µM | > 100 µM | > 100 µM | > 100 µM | > 100 µM | > 100 µM | > 100 µM | > 100 µM | > 100 µM | > 100 µM | > 100 µM
C[C@]12CCc3sc(NCCc4ccccc4)nc3C1=CC[C@@H]1[C@@H]2CC[C@]2(C)C(=O)CC[C@@H]12 | 3.35 µM | > 100 µM | 2.93 µM | 9.1 µM | 1.78 µM | 3.64 µM | 2.67 µM | 10.6 µM | 1.96 µM | 3.75 µM | 2.77 µM | > 100 µM | 1.57 µM | 4.49 µM | 3.01 µM | > 100 µM | 17 µM | > 100 µM | 3.63 µM | > 100 µM
CCN(Cc1ccc(F)cc1)c1ccc(CO)c(F)c1 | 21.6 µM | 94.6 µM | 12.8 µM | 37.3 µM | 14.1 µM | 35.8 µM | 1.62 µM | 7.42 µM | 14.9 µM | > 100 µM | 16.2 µM | > 84.5 µM | 10.4 µM | > 88.1 µM | 22.8 µM | > 72.4 µM | 10.5 µM | 26.8 µM | 20.4 µM | > 67.5 µM
CN[C@H](C#Cc1c(F)ccc2c1/C(=C/c1[nH]ccc1OC)C(=O)N2)CO | 1.03 µM | 10.8 µM | 0.513 µM | 2.01 µM | 0.659 µM | 2.45 µM | 0.671 µM | 4.6 µM | 0.115 µM | 2.71 µM | 0.551 µM | 4.25 µM | 0.117 µM | 3.02 µM | 0.354 µM | 2.82 µM | 0.199 µM | 0.749 µM | 0.403 µM | 3.14 µM
CC1CC2OC(=O)C(C)C2CC2(C)C(OC3OC(CO)C(O)C(O)C3O)OCCC12 (stereo not given) |  | > 100 µM |  | > 100 µM |  | > 100 µM |  | 30.6 µM |  | > 100 µM |  | > 100 µM |  | > 100 µM |  | > 100 µM |  | > 100 µM |  | > 100 µM
COc1ccc(-c2nc(-c3ccccc3)c(-c3ccccc3)[nH]2)cc1OC1CCCC1 | > 100 µM | > 100 µM | > 100 µM | > 100 µM | 6.11 µM | > 100 µM | > 100 µM | > 100 µM | > 100 µM | > 100 µM | > 100 µM | > 100 µM | 13.2 µM | > 100 µM | > 100 µM | > 100 µM | > 100 µM | > 100 µM | > 100 µM | > 100 µM
c1cc2n(n1)CCN2 |  | > 10000 µM |  | 5150 µM |  | > 7740 µM |  | 6540 µM |  | 5330 µM |  | > 9400 µM |  | > 10000 µM |  | > 10000 µM |  | > 7500 µM |  | 5760 µM
Cc1cc(NCCN(C(C)C)C(C)C)nc(/N=C(\N)Nc2ccc(Cl)c(C(F)(F)F)c2)n1 | 0.596 µM | 2.45 µM | 0.38 µM | 0.952 µM | 0.206 µM | 0.47 µM | 0.198 µM | 0.417 µM | 0.381 µM | 1.06 µM | 0.275 µM | 0.812 µM | 0.276 µM | 0.913 µM | 0.196 µM | 0.389 µM | 0.208 µM | 0.388 µM | 0.181 µM | 0.323 µM
O=C(N/C(=C/c1ccc(Cl)cc1Cl)c1nc2ccccc2s1)c1ccccc1 |  | 38.9 µM |  | > 100 µM |  | 24.7 µM |  | 30.2 µM |  | 19.5 µM |  | 47.4 µM |  | 13.3 µM |  | 30.2 µM |  | 36.1 µM |  | 37.6 µM
CCOC(=O)c1cc2c(n1Cc1cccc(OC)c1)-c1oncc1CCC2 | 1.67 µM | > 100 µM | 1.19 µM | > 58.4 µM | 0.222 µM | 0.704 µM | 0.712 µM | > 100 µM | 4.42 µM | > 100 µM | 3.21 µM | > 100 µM | 0.473 µM | > 100 µM | 0.153 µM | 0.456 µM | 0.535 µM | 14.9 µM | 0.693 µM | > 100 µM
O=C(O)C1OC1(c1cccc(Cl)c1)c1ccccc1Cl (stereo not given) |  | 57.9 µM |  | 55.2 µM |  | 65 µM |  | 35 µM |  | > 100 µM |  | > 100 µM |  | 22.9 µM |  | > 100 µM |  | 31.2 µM |  | 42.2 µM
